US20250051391A1, “PEPTIDE INHIBITORS AND METHODS FOR INHIBITING PROTEIN AGGREGATION IN NEURONS AND NEURODEGENERATIVE DISEASES” (THE GOVERNING COUNCIL OF THE UNIVERSITY OF TORONTO, priority 2021, published 2025)
Ends that are not written are not given here.

Assays:
[1] = system: HEK293 cells overexpressing human a-syn (WT); assay: Cytotoxicity screen of lentiviral 7-mer peptide library, Alpha Syn (WT) cells under MG132; format: cell-based
From the text: A screening system to discover candidate peptides to perturb endogenous PPIs based on libraries of short linear interaction motifs that mediate a large fraction (˜30%) of human PPIs (10-12) was recently developed. Here, a lentiviral library of 50,549 7-mer peptide motifs (13) on a green fluorescent protein (GFP) scaffold (FIG. 1A) was used. Cells in a pooled format were infected and the amino acid sequence of each peptide served as its own barcode. By using a low multiplicity of infection followed by puromycin selection, each infected cell expressed one unique GFP-peptide. Peptides that reduced a-syn-mediated cytotoxicity or a-syn oligomers in parallel (FIG. 1A), were screened for.
To cause cytotoxicity relevant to PD, proteostatic stress in HEK293 cells was induced by inhibiting the proteasome with MG132 and inducing the overexpression of human a-syn (WT) from idiopathic PD in one screen and the more toxic A53T mutant from familial PD in a second screen. The combination of a-syn overexpression and pharmacological proteasome inhibition led to death of most cells, with only those that expressed a protective peptide surviving. By extracting genomic DNA from the surviving cells and amplifying the peptide coding sequences, the protective peptides (FIG. 1A) were identified.
PCR primers that included the Illumina adaptor sequences were used to amplify peptide coding sequences recovered from selection and cell sorting. Results were demultiplexed, and peptide counts were tallied. After demultiplexing, only reads with an average quality Phred score of >30 were selected, and frequencies were calculated. Finally, the reads were then normalized to the total number of peptides read for that sample population, and a scalar factor was applied. In parallel, ˜25 individual colonies were Sanger sequenced to compare to the NGS data.
Lentiviruses were made in a 15 cm dish format by transfecting packaging cells (293T) with a three-plasmid system as previously described. Viral transduction of HEK293T cells, tet-off split luciferase a-syn cells, tet-off parent cells, and SH-SY5Y cells were performed with a multiplicity of infection of 0.3 (MOI=0.3). Infected cells were selected in puromycin-containing medium to eliminate uninfected cells and three aliquots of cells were collected for sampling of the initial (TO) cell population. Cells were treated with MG132 at concentrations of 0 μM, 10 μM, 25 μM or 50 μM. For the cell viability screen, surviving cells were collected and gDNA was extracted for identification of peptide inhibitors of cell toxicity. For the inhibition of a-syn aggregation screen, split YFP-a-syn constructs were transfected following stable expression of the peptides. Cells were sorted based on their GFP fluorescence intensities with a FACSVantage SE cell sorter (BD Bioscience).
Genomic DNA (gDNA) from peptide expressing cells at different time-points was extracted using QIAamp DNA Blood Mini Kit. PCR amplifications of peptides from gDNA in parallel with the lentiviral plasmid library (naïve library) were performed using indexed Illumina PCR primers to incorporate both the Illumina adapter sequences and indexing sequences. Each 50 μl reaction contained 3.2 μg of template, 2×PCR buffer, 2× enhancer solution, 300 μM each dNTP, 900 nM each of Adapter A (5′-[…]-[…]-3′) (SEQ ID NO: 42) and Adapter B (5′-[…]-[…]-3′) (SEQ ID NO: 43), 1 mM MgSO4, 3.75 units of Platinum Pfx polymerase, and water to 50 μl. The PCR reaction was performed by denaturing at 94° C. for 5 minutes, followed by cycling (94° C. for 30 seconds, 65° C. for 30 seconds, 68° C. for 30 seconds)×28 cycles, 68° C. for 5 minutes, then cooling to 4° C. The resulting 244 bp product was purified by electrophoresis in 2% agarose followed by gel extraction. Peptide libraries were quantified using Quant-It assay (Invitrogen) and pooled. […]

[2] = system: C. elegans PDE dopaminergic neurons; assay: C. elegans neurite length assay (A30P a-syn); format: in vivo; settings: A30P human a-syn; RFP-tagged peptide version based on the nematode sequence of CHMP2B
Procedure: C. elegans strains were grown and maintained under standard conditions at 22-23° (4). BZ555 [dat-1p::gfp] was obtained from the C. elegans Genetics Center (CGC; University of Minnesota, St Paul, MN, USA), TWH1 ([dat-1p::a-syn(A30P), ges-1p::DsRed]; [dat-1p::gfp]) was obtained by crossing BZ555 with A30P a-syn transgenic animals (kindly provided by Dr. Takeshi Iwatsubo, University of Tokyo) (5).
The peptide construct (pPD97.78_osm-6p_TagRFP_wpeptide) was obtained by subcloning the following fragments into NheI and SpeI sites of pPD97.78 (A. Fire): NheI-AgeI […] fragment (2.4 kb) obtained by PCR using primer set 5′-[…]-3′ (SEQ ID NO: 44) and 5′-[…]-3′ (SEQ ID NO: 45) and N2 genomic DNA as a template, AgeI-EcoRI TagRFP fragment obtained by PCR using primer set 5′-gttgaccggt[…]-3′ (SEQ ID NO: 46) and 5′-ggcagaattcga[…]-3′ (SEQ ID NO: 47), EcoRI-SmaI peptide ([…] (SEQ ID NO: 48)) fragment digested from CMV_[…]_worm, SmaI-SpeI unc-54 3′-UTR fragment digested from pPD95.75 (Fire vector). […]
Each plasmid (40 ng/μl) was injected with a co-injection marker, sur-5p::mCherry into TWH1. The animals carrying the extrachromosomal arrays were transferred to new plates, and their progenies were analyzed at the adult stage under a widefield microscope (Zeiss AxioObserver). […]

HEK293 cells = assay: Lysosome activity (lysosomal flux) assay in HEK293 cells; format: cell-based, human; settings: HEK293 cells co-expressing A53T a-syn
Procedure: The Lysosome Intracellular Activity Assay kit was purchased from Abcam and used per manufacturer's instructions (ab234622). Briefly, cell medium was replaced with fresh medium containing DMSO, Leupeptin, or Bafilomycin A1 and incubated for 1 h at 37° C. with 5% CO2. Self-quenched substrate was added into each condition and incubated for 1 h (HEK293 cells) or overnight (SNCA triplication fibroblasts) at 37° C. with 5% CO2. After incubation, cells were washed twice in ice-cold 1× assay buffer containing DMSO, Leupeptin, or Bafilomycin A1. For HEK293 cells, cells were re-suspended in PBS containing DMSO or Leupeptin and analyzed by FACS. For fibroblasts, cells were incubated in PBS containing DMSO or Bafilomycin A1 and imaged by confocal microscopy.

Substance: IPIQLKA [PDpep1, top hit of all screens; maps to CHMP2B residues 203-209]
- Slope Norm Reads [1]: 3.45
- Reads 0 uM MG132 ([1]; normalized Illumina peptide counts, 0 uM MG132): 90
- Reads 10 UM MG132 ([1]; normalized Illumina peptide counts, 10 µM MG132): 1
- Reads 25 UM MG132 ([1]; normalized Illumina peptide counts, 25 µM MG132): 1629
- Reads 50 UM MG132 ([1]; normalized Illumina peptide counts, 50 µM MG132): 3375

Substance: DEEIERQLKALG [PDpep1.3]
- neurite shortening of PDE dopaminergic neurons [2]: partially rescued
- lysosomal flux (HEK293 cells): returned lysosomal flux to baseline
